In PubChem BioAssay (NCI):
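Results reflect a 48-hour exposure of cells in 96-well plates to compound at five concentrations. GI50 is the concentration that inhibits growth by half. At the TGI there is no net growth.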

Experiments:
Experiment in all cases: NCI anticancer screen, dose series, 48 h
[1] = test system: CAKI-1 renal
[2] = test system: A498 renal
[3] = test system: HCT-15 colon
[4] = test system: RPMI-8226 leukemia
[5] = test system: NCI-H226 lung
[6] = test system: NCI/ADR-RES ovarian
[7] = test system: COLO 205 colon
[8] = test system: UACC-62 melanoma
[9] = test system: U251 CNS
[10] = test system: MDA-MB-435
[11] = test system: ACHN renal
[12] = test system: SW-620 colon
[13] = test system: EKVX NSCLC
[14] = test system: UACC-257 melanoma
[15] = test system: BT-549 breast
[16] = test system: TK-10 renal
[17] = test system: OVCAR-3 ovarian
[18] = test system: HCT-116 colon
[19] = test system: SNB-75 CNS
[20] = test system: HS 578T breast
[21] = test system: T-47D breast
[22] = test system: SK-OV-3 ovarian
[23] = test system: LOX IMVI melanoma
[24] = test system: OVCAR-4 ovarian
[25] = test system: RXF 393 renal
[26] = test system: M14 melanoma
[27] = test system: SN12C renal
[28] = test system: SK-MEL-5 melanoma
[29] = test system: IGROV1 ovarian
[30] = test system: OVCAR-5 ovarian
[31] = test system: MDA-MB-231 breast
[32] = test system: 786-0 renal
[33] = test system: HCC-2998 colon
[34] = test system: SNB-19 CNS
[35] = test system: SK-MEL-2 melanoma
[36] = test system: NCI-H23 lung
[37] = test system: SR leukemia
[38] = test system: HOP-92 NSCLC
[39] = test system: PC-3 prostate
[40] = test system: NCI-H460 lung
[41] = test system: SF-295 CNS
[42] = test system: KM12 colon
[43] = test system: HT29 colon
[44] = test system: DU-145 prostate
[45] = test system: HOP-62 NSCLC
[46] = test system: SK-MEL-28 melanoma
[47] = test system: SF-539 CNS
[48] = test system: HL-60(TB) leukemia
[49] = test system: SF-268 CNS
[50] = test system: MOLT-4 leukemia
[51] = test system: UO-31 renal
[52] = test system: NCI-H522 lung
[53] = test system: MALME-3M melanoma
[54] = test system: OVCAR-8 ovarian
[55] = test system: K-562 leukemia
[56] = test system: A549 NSCLC
[57] = test system: MCF7 breast
[58] = test system: CCRF-CEM leukemia

## CC(=O)OC1Oc2ccccc2-c2oc(=O)c(-c3ccc(F)cc3)cc21 (stereo unspecified)
[1]
  GI50: 30.9 µM
  TGI: > 100 µM
[2]
  GI50: 28.3 µM
  TGI: 71.9 µM
[3]
  GI50: 20.9 µM
  TGI: > 100 µM
[4]
  GI50: 24.6 µM
  TGI: 60.3 µM
[5]
  GI50: 29.7 µM
  TGI: 78.1 µM
[6]
  GI50: 60 µM
  TGI: > 100 µM
[7]
  GI50: 36.3 µM
  TGI: > 100 µM
[8]
  GI50: 10.8 µM
  TGI: 33.6 µM
[9]
  GI50: 16.8 µM
  TGI: > 100 µM
[10]
  GI50: 4.33 µM
  TGI: 40.3 µM
[11]
  GI50: 31.8 µM
  TGI: > 100 µM
[12]
  GI50: 19 µM
  TGI: > 100 µM
[13]
  GI50: 9.46 µM
  TGI: 83.3 µM
[14]
  GI50: 35.5 µM
  TGI: > 100 µM
[15]
  GI50: 23.8 µM
  TGI: 69.1 µM
[16]
  GI50: 26.7 µM
  TGI: 83.8 µM
[17]
  GI50: 23.2 µM
  TGI: 71.7 µM
[18]
  GI50: 31.5 µM
  TGI: > 100 µM
[19]
  GI50: 5.59 µM
  TGI: 41.7 µM
[20]
  GI50: 10.4 µM
  TGI: 74.7 µM
[21]
  GI50: 22.5 µM
  TGI: 93.3 µM
[22]
  GI50: 35 µM
  TGI: > 100 µM
[23]
  GI50: 16.6 µM
  TGI: 73.2 µM
[24]
  GI50: 28.2 µM
  TGI: > 100 µM
[25]
  GI50: 26.8 µM
  TGI: 99.7 µM
[26]
  GI50: 25.3 µM
  TGI: 95.8 µM
[27]
  GI50: 35.1 µM
  TGI: > 100 µM
[28]
  GI50: 14.9 µM
  TGI: 31 µM
[29]
  GI50: 33.5 µM
  TGI: > 100 µM
[30]
  GI50: 66.5 µM
  TGI: > 100 µM
[31]
  GI50: 33.9 µM
  TGI: > 100 µM
[32]
  GI50: 17.7 µM
  TGI: 77.3 µM
[33]
  GI50: 24.8 µM
  TGI: > 100 µM
[34]
  GI50: 30.6 µM
  TGI: > 100 µM
[35]
  GI50: 39.5 µM
  TGI: > 100 µM
[36]
  GI50: 40.7 µM
  TGI: > 100 µM
[37]
  GI50: 2.86 µM
  TGI: 9.08 µM
[38]
  GI50: 29.6 µM
  TGI: 96.9 µM
[39]
  GI50: 32.7 µM
  TGI: > 100 µM
[40]
  GI50: 25.2 µM
  TGI: > 100 µM
[41]
  GI50: 23.3 µM
  TGI: > 100 µM
[42]
  GI50: 12.2 µM
  TGI: 43 µM
[43]
  GI50: 21.6 µM
  TGI: > 100 µM
[44]
  GI50: 29 µM
  TGI: > 100 µM
[45]
  GI50: 8.79 µM
  TGI: 40.2 µM
[46]
  GI50: 32.6 µM
  TGI: > 100 µM
[47]
  GI50: 24.6 µM
  TGI: 74.6 µM
[48]
  GI50: 24.9 µM
  TGI: > 100 µM
[49]
  GI50: 29.6 µM
  TGI: > 100 µM
[50]
  GI50: 14 µM
  TGI: 31.1 µM
[51]
  GI50: 32.8 µM
  TGI: > 100 µM
[52]
  GI50: 20.2 µM
  TGI: 78.3 µM
[53]
  GI50: 21.9 µM
  TGI: 70.7 µM
[54]
  GI50: 36.3 µM
  TGI: > 100 µM
[55]
  GI50: 17.1 µM
  TGI: > 100 µM
[56]
  GI50: 38.8 µM
  TGI: > 100 µM
[57]
  GI50: 6.01 µM
  TGI: 40 µM
[58]
  GI50: 23.4 µM
  TGI: 55.2 µM
